According to ChEMBL document CHEMBL3525953, “In vitro cytochrome P450-mediated metabolism of exemestane” (Drug Metab Dispos, 2011):

How the values were obtained:
Assay type in all cases: ADME
Cytochrome P450 3A5 = Cytochrome P450 3A5 (Homo sapiens, UniProt P20815); assay: Drug metabolism assessed as human recombinant CYP3A5-mediated 17-hydroexemestane formation rate per pmol of enzyme at 10 uM after 10 mins
Aromatase = molecular target: T1, Aromatase (Homo sapiens, UniProt P11511); assay: Drug metabolism assessed as human recombinant CYP19-mediated 17-hydroexemestane formation at 10 uM after 10 mins by Michaelis-Menten saturation curve analysis; settings: recombinant enzyme
T1 sequence (P11511 whole entry): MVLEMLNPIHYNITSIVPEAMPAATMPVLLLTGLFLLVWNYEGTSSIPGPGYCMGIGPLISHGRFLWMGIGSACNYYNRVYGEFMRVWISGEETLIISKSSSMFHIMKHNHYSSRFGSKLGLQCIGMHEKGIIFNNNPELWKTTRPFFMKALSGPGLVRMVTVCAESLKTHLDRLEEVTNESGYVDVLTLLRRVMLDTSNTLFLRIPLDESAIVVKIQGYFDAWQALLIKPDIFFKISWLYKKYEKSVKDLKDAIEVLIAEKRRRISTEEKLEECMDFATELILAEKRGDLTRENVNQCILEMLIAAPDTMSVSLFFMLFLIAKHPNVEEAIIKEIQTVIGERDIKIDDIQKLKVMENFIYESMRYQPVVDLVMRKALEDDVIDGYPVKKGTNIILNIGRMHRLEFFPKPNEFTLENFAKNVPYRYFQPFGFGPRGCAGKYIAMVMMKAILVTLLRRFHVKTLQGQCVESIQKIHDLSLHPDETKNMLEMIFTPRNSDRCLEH

Cytochrome P450 2B6 = molecular target: T2, Cytochrome P450 2B6 (Homo sapiens, UniProt P20813); assay: Drug metabolism assessed as human recombinant CYP2B6-mediated 17-hydroexemestane formation at 10 uM after 10 mins by Michaelis-Menten saturation curve analysis; settings: recombinant enzyme
T2 sequence (P20813 whole entry): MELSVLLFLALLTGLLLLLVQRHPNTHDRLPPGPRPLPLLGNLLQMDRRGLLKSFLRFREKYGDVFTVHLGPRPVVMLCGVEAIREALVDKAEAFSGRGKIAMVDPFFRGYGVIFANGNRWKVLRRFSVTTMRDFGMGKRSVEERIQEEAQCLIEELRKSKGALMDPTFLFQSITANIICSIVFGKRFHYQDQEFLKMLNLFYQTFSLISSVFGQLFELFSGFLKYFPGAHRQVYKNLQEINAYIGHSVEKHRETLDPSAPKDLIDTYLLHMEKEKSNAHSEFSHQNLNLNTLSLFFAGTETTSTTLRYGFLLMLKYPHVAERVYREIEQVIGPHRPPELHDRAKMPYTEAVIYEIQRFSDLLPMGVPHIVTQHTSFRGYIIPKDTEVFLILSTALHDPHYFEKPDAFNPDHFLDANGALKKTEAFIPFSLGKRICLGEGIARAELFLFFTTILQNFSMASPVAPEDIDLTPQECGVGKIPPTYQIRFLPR

Cytochrome P450 1A1 = molecular target: T3, Cytochrome P450 1A1 (Homo sapiens, UniProt P04798); assay: Drug metabolism assessed as human recombinant CYP1A1-mediated 17-hydroexemestane formation rate per pmol of enzyme at 10 uM after 10 mins
T3 sequence (P04798 whole entry): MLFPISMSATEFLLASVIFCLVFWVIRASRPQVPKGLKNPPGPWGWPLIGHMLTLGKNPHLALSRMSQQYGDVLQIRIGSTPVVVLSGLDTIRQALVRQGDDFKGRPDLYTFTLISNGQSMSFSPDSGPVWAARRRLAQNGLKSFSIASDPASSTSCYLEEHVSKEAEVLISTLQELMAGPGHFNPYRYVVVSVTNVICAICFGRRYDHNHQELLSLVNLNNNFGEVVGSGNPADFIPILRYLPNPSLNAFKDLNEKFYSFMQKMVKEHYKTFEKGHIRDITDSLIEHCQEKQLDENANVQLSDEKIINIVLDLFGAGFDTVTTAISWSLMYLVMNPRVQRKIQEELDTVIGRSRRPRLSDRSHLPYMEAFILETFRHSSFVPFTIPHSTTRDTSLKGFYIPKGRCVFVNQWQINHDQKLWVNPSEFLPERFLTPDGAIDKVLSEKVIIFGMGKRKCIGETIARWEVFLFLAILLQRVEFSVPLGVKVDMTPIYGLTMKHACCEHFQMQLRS

Cytochrome P450 1A2 = molecular target: T4, Cytochrome P450 1A2 (Homo sapiens, UniProt P05177); assay: Drug metabolism assessed as human recombinant CYP1A2-mediated 17-hydroexemestane formation at 10 uM after 10 mins by Michaelis-Menten saturation curve analysis; settings: recombinant enzyme
T4 sequence (P05177 whole entry): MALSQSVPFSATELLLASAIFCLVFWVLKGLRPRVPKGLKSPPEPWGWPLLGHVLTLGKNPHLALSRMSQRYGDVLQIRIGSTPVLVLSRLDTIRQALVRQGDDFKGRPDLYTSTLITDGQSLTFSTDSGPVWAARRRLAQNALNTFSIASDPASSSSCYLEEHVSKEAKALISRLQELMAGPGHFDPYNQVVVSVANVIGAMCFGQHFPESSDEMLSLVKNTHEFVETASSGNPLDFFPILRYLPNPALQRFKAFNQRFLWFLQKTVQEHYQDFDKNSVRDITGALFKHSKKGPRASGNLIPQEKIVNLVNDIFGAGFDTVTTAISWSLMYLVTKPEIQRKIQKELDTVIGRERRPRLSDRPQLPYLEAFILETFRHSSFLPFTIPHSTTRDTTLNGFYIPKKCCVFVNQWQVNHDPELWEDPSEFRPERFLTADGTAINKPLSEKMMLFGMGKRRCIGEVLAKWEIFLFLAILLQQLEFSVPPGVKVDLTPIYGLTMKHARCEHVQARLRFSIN

Cytochrome P450 2C9 = Cytochrome P450 2C9 (Homo sapiens, UniProt P11712); assay: Drug metabolism assessed as human recombinant CYP2C9-mediated 17-hydroexemestane formation rate per pmol of enzyme at 10 uM after 10 mins
Sequence of Cytochrome P450 2C9 (P11712 whole entry): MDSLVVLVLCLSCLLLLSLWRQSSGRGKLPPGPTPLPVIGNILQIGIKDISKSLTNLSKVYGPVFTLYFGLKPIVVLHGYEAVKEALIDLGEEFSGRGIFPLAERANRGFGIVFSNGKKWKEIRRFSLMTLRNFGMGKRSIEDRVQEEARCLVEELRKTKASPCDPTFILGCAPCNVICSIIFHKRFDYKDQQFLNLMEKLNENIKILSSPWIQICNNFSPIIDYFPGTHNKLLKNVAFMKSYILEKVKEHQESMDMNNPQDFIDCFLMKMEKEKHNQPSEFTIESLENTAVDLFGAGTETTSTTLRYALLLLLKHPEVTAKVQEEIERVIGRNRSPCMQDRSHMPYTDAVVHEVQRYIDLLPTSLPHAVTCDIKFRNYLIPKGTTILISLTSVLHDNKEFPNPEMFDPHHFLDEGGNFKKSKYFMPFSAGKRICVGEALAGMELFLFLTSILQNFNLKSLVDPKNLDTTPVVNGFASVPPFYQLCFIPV

Liver microsome [1] = assay: Drug metabolism in human liver microsomes assessed as retention time treated with 300 uM of exemestane after 10 mins by HPLC with UV analysis
Liver microsome [2] = assay: Drug metabolism in human liver microsomes assessed as 17-hydroexemestane formation at 10 uM after 10 mins by LC-MS/MS analysis

Sequence of Cytochrome P450 3A5 (P20815 whole entry): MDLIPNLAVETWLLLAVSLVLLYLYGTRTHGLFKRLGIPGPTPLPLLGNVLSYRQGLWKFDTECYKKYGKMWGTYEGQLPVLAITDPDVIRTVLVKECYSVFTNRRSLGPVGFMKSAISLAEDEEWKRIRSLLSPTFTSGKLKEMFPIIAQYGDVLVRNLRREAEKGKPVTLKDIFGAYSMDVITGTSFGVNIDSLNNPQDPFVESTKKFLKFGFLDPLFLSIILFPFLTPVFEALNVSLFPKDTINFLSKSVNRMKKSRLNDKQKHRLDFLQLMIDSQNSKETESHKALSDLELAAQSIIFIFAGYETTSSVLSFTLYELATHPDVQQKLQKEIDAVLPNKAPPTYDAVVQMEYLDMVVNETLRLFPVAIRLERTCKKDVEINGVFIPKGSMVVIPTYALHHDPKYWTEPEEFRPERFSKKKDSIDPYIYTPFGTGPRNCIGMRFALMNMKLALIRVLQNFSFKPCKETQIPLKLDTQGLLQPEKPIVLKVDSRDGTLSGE

`C=C1C[C@@H]2[C@H](CC[C@]3(C)C(O)CC[C@@H]23)[C@@]2(C)C=CC(=O)C=C12` (some centres undefined) was tested, and the Drug metabolism (Cytochrome P450 3A5) was 0.21 pmol/min, the Drug metabolism (Aromatase) was “metabolite_detected” and the “Vmax(app)” value (Cytochrome P450 2B6) was 3.9 pmol/mg/min. For the same molecule, the Km (Cytochrome P450 2B6; read-out: Km(app)) was 177 µM, the Drug metabolism (Cytochrome P450 1A1) was 1.09 pmol/min and the Drug metabolism (Cytochrome P450 1A2) was “metabolite_detected”. The Drug metabolism (Cytochrome P450 2C9) was “metabolite_not_detected”, the Retention_time (Liver microsome [1]) was 13.1 min and the “Vmax(app)” value (Liver microsome [2]) was 137.32 pmol/mg/min.
